Laboratory results reported in ChEMBL document CHEMBL1697731, “Cheminformatics analysis of assertions mined from literature that describe drug-induced liver injury in different species” (Chem Res Toxicol, 2010).

Legend:
Hepatotoxicity [1] = assay: Literature-mined compound from Fourches et al multi-species drug-induced liver injury (DILI) dataset, effect in rodents; conditions: rodentia
Hepatotoxicity [2] = assay: Literature-mined compound from Fourches et al multi-species drug-induced liver injury (DILI) dataset, effect in non-rodents
Hepatotoxicity [3] = assay: Literature-mined compound from Fourches et al multi-species drug-induced liver injury (DILI) dataset, effect in humans; conditions: human

## Cn1c(CCCC(=O)O)nc2cc(N(CCCl)CCCl)ccc21 [BENDAMUSTINE]
Hepatotoxicity [1]
  Hepatotoxicity: no drug-induced liver injury reported
Hepatotoxicity [2]
  Hepatotoxicity: no drug-induced liver injury reported
Hepatotoxicity [3]
  Hepatotoxicity: drug-induced liver injury reported

## O=C(O)COc1nn(Cc2ccccc2)c2ccccc12 [BENDAZAC]
Hepatotoxicity [1]; Liver
  Hepatotoxicity: no drug-induced liver injury reported
Hepatotoxicity [2]; Liver
  Hepatotoxicity: no drug-induced liver injury reported
Hepatotoxicity [3]; Liver
  Hepatotoxicity: drug-induced liver injury reported

## CC(=O)Nc1ccc(OC(=O)c2ccccc2OC(C)=O)cc1 [BENORILATE]
Hepatotoxicity [1]
  Hepatotoxicity: drug-induced liver injury reported
Hepatotoxicity [2]
  Hepatotoxicity: no drug-induced liver injury reported
Hepatotoxicity [3]
  Hepatotoxicity: no drug-induced liver injury reported

## CC(C(=O)O)c1ccc2oc(-c3ccc(Cl)cc3)nc2c1 (stereo unspecified) [BENOXAPROFEN]
Hepatotoxicity [1]
  Hepatotoxicity: drug-induced liver injury reported
Hepatotoxicity [2]
  Hepatotoxicity: no drug-induced liver injury reported
Hepatotoxicity [3]
  Hepatotoxicity: drug-induced liver injury reported

## CCc1oc2ccccc2c1C(=O)c1ccc(O)cc1 [BENZARONE]
Hepatotoxicity [1]
  Hepatotoxicity: drug-induced liver injury reported
Hepatotoxicity [2]
  Hepatotoxicity: no drug-induced liver injury reported
Hepatotoxicity [3]
  Hepatotoxicity: drug-induced liver injury reported

## CCc1oc2ccccc2c1C(=O)c1cc(Br)c(O)c(Br)c1 [BENZBROMARONE]
Hepatotoxicity [1]
  Hepatotoxicity: drug-induced liver injury reported
Hepatotoxicity [2]
  Hepatotoxicity: no drug-induced liver injury reported
Hepatotoxicity [3]
  Hepatotoxicity: drug-induced liver injury reported

## CCc1oc2ccccc2c1C(=O)c1cc(I)c(O)c(I)c1 [BENZIODARONE]
Hepatotoxicity [1]
  Hepatotoxicity: drug-induced liver injury reported
Hepatotoxicity [2]
  Hepatotoxicity: no drug-induced liver injury reported
Hepatotoxicity [3]
  Hepatotoxicity: no drug-induced liver injury reported

## O=C(OOC(=O)c1ccccc1)c1ccccc1 [BENZOYL PEROXIDE]
Hepatotoxicity [1]
  Hepatotoxicity: drug-induced liver injury reported
Hepatotoxicity [2]
  Hepatotoxicity: no drug-induced liver injury reported
Hepatotoxicity [3]
  Hepatotoxicity: no drug-induced liver injury reported

## CC#CCC(C)[C@H](O)/C=C/[C@@H]1[C@H]2c3cccc(CCCC(=O)O)c3O[C@H]2C[C@H]1O (stereo partly specified) [BERAPROST]
Hepatotoxicity [1]
  Hepatotoxicity: drug-induced liver injury reported
Hepatotoxicity [2]
  Hepatotoxicity: no drug-induced liver injury reported
Hepatotoxicity [3]
  Hepatotoxicity: no drug-induced liver injury reported

## CC1=C(/C=C/C(C)=C/C=C/C(C)=C/C=C/C=C(C)/C=C/C=C(C)/C=C/C2=C(C)CCCC2(C)C)C(C)(C)CCC1 [BETA CAROTENE]
Hepatotoxicity [1]
  Hepatotoxicity: drug-induced liver injury reported
Hepatotoxicity [2]
  Hepatotoxicity: drug-induced liver injury reported
Hepatotoxicity [3]
  Hepatotoxicity: drug-induced liver injury reported

## CC[C@H](CC[C@@H](C)[C@H]1CC[C@H]2[C@@H]3CC=C4C[C@@H](O)CC[C@]4(C)[C@H]3CC[C@]12C)C(C)C [BETA-SITOSTEROL]
Hepatotoxicity [1]
  Hepatotoxicity: drug-induced liver injury reported
Hepatotoxicity [2]
  Hepatotoxicity: no drug-induced liver injury reported
Hepatotoxicity [3]
  Hepatotoxicity: drug-induced liver injury reported

## C[N+](C)(C)CC(=O)O [BETAINE]
Hepatotoxicity [1]
  Hepatotoxicity: drug-induced liver injury reported
Hepatotoxicity [2]
  Hepatotoxicity: no drug-induced liver injury reported
Hepatotoxicity [3]
  Hepatotoxicity: no drug-induced liver injury reported

## C[C@H]1C[C@H]2[C@@H]3CCC4=CC(=O)C=C[C@]4(C)[C@@]3(F)[C@@H](O)C[C@]2(C)[C@@]1(O)C(=O)CO [BETAMETHASONE]
Hepatotoxicity [1]
  Hepatotoxicity: drug-induced liver injury reported
Hepatotoxicity [2]
  Hepatotoxicity: no drug-induced liver injury reported
Hepatotoxicity [3]
  Hepatotoxicity: no drug-induced liver injury reported

## C=C(C)[C@@H]1CC[C@]2(C(=O)O)CC[C@]3(C)[C@H](CC[C@@H]4[C@@]5(C)CC[C@H](O)C(C)(C)[C@@H]5CC[C@]43C)[C@@H]12 [BETULINIC ACID]
Hepatotoxicity [1]
  Hepatotoxicity: no drug-induced liver injury reported
Hepatotoxicity [2]
  Hepatotoxicity: no drug-induced liver injury reported
Hepatotoxicity [3]
  Hepatotoxicity: drug-induced liver injury reported

## CC(C)(Oc1ccc(CCNC(=O)c2ccc(Cl)cc2)cc1)C(=O)O [BEZAFIBRATE]
Hepatotoxicity [1]
  Hepatotoxicity: drug-induced liver injury reported
Hepatotoxicity [2]
  Hepatotoxicity: no drug-induced liver injury reported
Hepatotoxicity [3]
  Hepatotoxicity: drug-induced liver injury reported

## CC(O)(CS(=O)(=O)c1ccc(F)cc1)C(=O)Nc1ccc(C#N)c(C(F)(F)F)c1 (stereo unspecified) [BICALUTAMIDE]
Hepatotoxicity [1]
  Hepatotoxicity: no drug-induced liver injury reported
Hepatotoxicity [2]
  Hepatotoxicity: no drug-induced liver injury reported
Hepatotoxicity [3]
  Hepatotoxicity: drug-induced liver injury reported

## c1ccc(-c2ccc(C(c3ccccc3)n3ccnc3)cc2)cc1 (stereo unspecified) [BIFONAZOLE]
Hepatotoxicity [1]
  Hepatotoxicity: drug-induced liver injury reported
Hepatotoxicity [2]
  Hepatotoxicity: no drug-induced liver injury reported
Hepatotoxicity [3]
  Hepatotoxicity: no drug-induced liver injury reported

## O=C(O)CCCC[C@@H]1SC[C@@H]2NC(=O)N[C@@H]21 [BIOTIN]
Hepatotoxicity [1]
  Hepatotoxicity: no drug-induced liver injury reported
Hepatotoxicity [2]
  Hepatotoxicity: no drug-induced liver injury reported
Hepatotoxicity [3]
  Hepatotoxicity: drug-induced liver injury reported

## CC(C)NCC(O)COc1ccc(COCCOC(C)C)cc1 (stereo unspecified) [BISOPROLOL]
Hepatotoxicity [1]
  Hepatotoxicity: no drug-induced liver injury reported
Hepatotoxicity [2]
  Hepatotoxicity: no drug-induced liver injury reported
Hepatotoxicity [3]
  Hepatotoxicity: drug-induced liver injury reported

## CC(C)C[C@H](NC(=O)[C@H](Cc1ccccc1)NC(=O)c1cnccn1)B(O)O [BORTEZOMIB]
Hepatotoxicity [1]; Liver
  Hepatotoxicity: drug-induced liver injury reported
Hepatotoxicity [2]; Liver
  Hepatotoxicity: no drug-induced liver injury reported
Hepatotoxicity [3]; Liver
  Hepatotoxicity: drug-induced liver injury reported

## COc1ccccc1Oc1c(NS(=O)(=O)c2ccc(C(C)(C)C)cc2)nc(-c2ncccn2)nc1OCCO [BOSENTAN]
Hepatotoxicity [1]
  Hepatotoxicity: drug-induced liver injury reported
Hepatotoxicity [2]
  Hepatotoxicity: drug-induced liver injury reported
Hepatotoxicity [3]
  Hepatotoxicity: drug-induced liver injury reported

## Nc1c(CC(=O)O)cccc1C(=O)c1ccc(Br)cc1 [BROMFENAC]
Hepatotoxicity [1]
  Hepatotoxicity: no drug-induced liver injury reported
Hepatotoxicity [2]
  Hepatotoxicity: no drug-induced liver injury reported
Hepatotoxicity [3]
  Hepatotoxicity: drug-induced liver injury reported

## CC(C)C(Br)C(=O)NC(N)=O (stereo unspecified) [BROMISOVALUM]
Hepatotoxicity [1]
  Hepatotoxicity: drug-induced liver injury reported
Hepatotoxicity [2]
  Hepatotoxicity: no drug-induced liver injury reported
Hepatotoxicity [3]
  Hepatotoxicity: drug-induced liver injury reported

## CC(C)C[C@H]1C(=O)N2CCC[C@H]2[C@]2(O)O[C@](NC(=O)[C@@H]3C=C4c5cccc6[nH]c(Br)c(c56)C[C@H]4N(C)C3)(C(C)C)C(=O)N12 [BROMOCRIPTINE]
Hepatotoxicity [1]
  Hepatotoxicity: drug-induced liver injury reported
Hepatotoxicity [2]
  Hepatotoxicity: no drug-induced liver injury reported
Hepatotoxicity [3]
  Hepatotoxicity: no drug-induced liver injury reported

## Cc1nnc2n1-c1sc(Br)cc1C(c1ccccc1Cl)=NC2 [BROTIZOLAM]
Hepatotoxicity [1]
  Hepatotoxicity: drug-induced liver injury reported
Hepatotoxicity [2]
  Hepatotoxicity: no drug-induced liver injury reported
Hepatotoxicity [3]
  Hepatotoxicity: no drug-induced liver injury reported

## CCCC(=O)Nc1ncnc2c1ncn2[C@@H]1O[C@@H]2COP(=O)(O)O[C@H]2[C@H]1OC(=O)CCC [BUCLADESINE]
Hepatotoxicity [1]
  Hepatotoxicity: drug-induced liver injury reported
Hepatotoxicity [2]
  Hepatotoxicity: drug-induced liver injury reported
Hepatotoxicity [3]
  Hepatotoxicity: drug-induced liver injury reported

## CCCC1O[C@@H]2C[C@H]3[C@@H]4CCC5=CC(=O)C=C[C@]5(C)[C@H]4[C@@H](O)C[C@]3(C)[C@]2(C(=O)CO)O1 (stereo partly specified) [BUDESONIDE]
Hepatotoxicity [1]
  Hepatotoxicity: drug-induced liver injury reported
Hepatotoxicity [2]
  Hepatotoxicity: no drug-induced liver injury reported
Hepatotoxicity [3]
  Hepatotoxicity: drug-induced liver injury reported

## CCCCNc1cc(C(=O)O)cc(S(N)(=O)=O)c1Oc1ccccc1 [BUMETANIDE]
Hepatotoxicity [1]
  Hepatotoxicity: no drug-induced liver injury reported
Hepatotoxicity [2]
  Hepatotoxicity: drug-induced liver injury reported
Hepatotoxicity [3]
  Hepatotoxicity: no drug-induced liver injury reported

## CCCCN1CCCCC1C(=O)Nc1c(C)cccc1C (stereo unspecified) [BUPIVACAINE]
Hepatotoxicity [1]
  Hepatotoxicity: drug-induced liver injury reported
Hepatotoxicity [2]
  Hepatotoxicity: no drug-induced liver injury reported
Hepatotoxicity [3]
  Hepatotoxicity: no drug-induced liver injury reported

## CO[C@]12CC[C@@]3(C[C@@H]1[C@](C)(O)C(C)(C)C)[C@H]1Cc4ccc(O)c5c4[C@@]3(CCN1CC1CC1)[C@H]2O5 [BUPRENORPHINE]
Hepatotoxicity [1]
  Hepatotoxicity: drug-induced liver injury reported
Hepatotoxicity [2]
  Hepatotoxicity: no drug-induced liver injury reported
Hepatotoxicity [3]
  Hepatotoxicity: drug-induced liver injury reported

## CC(NC(C)(C)C)C(=O)c1cccc(Cl)c1 (stereo unspecified) [BUPROPION]
Hepatotoxicity [1]
  Hepatotoxicity: no drug-induced liver injury reported
Hepatotoxicity [2]
  Hepatotoxicity: no drug-induced liver injury reported
Hepatotoxicity [3]
  Hepatotoxicity: drug-induced liver injury reported

## O=C1CC2(CCCC2)CC(=O)N1CCCCN1CCN(c2ncccn2)CC1 [BUSPIRONE]
Hepatotoxicity [1]
  Hepatotoxicity: no drug-induced liver injury reported
Hepatotoxicity [2]
  Hepatotoxicity: no drug-induced liver injury reported
Hepatotoxicity [3]
  Hepatotoxicity: drug-induced liver injury reported

## CS(=O)(=O)OCCCCOS(C)(=O)=O [BUSULFAN]
Hepatotoxicity [1]
  Hepatotoxicity: drug-induced liver injury reported
Hepatotoxicity [2]
  Hepatotoxicity: no drug-induced liver injury reported
Hepatotoxicity [3]
  Hepatotoxicity: drug-induced liver injury reported

## CCCCOCN(C(=O)CCl)c1c(CC)cccc1CC [BUTACHLOR]
Hepatotoxicity [1]
  Hepatotoxicity: drug-induced liver injury reported
Hepatotoxicity [2]
  Hepatotoxicity: no drug-induced liver injury reported
Hepatotoxicity [3]
  Hepatotoxicity: no drug-induced liver injury reported

## C=CCC1(CC(C)C)C(=O)NC(=O)NC1=O [BUTALBITAL]
Hepatotoxicity [1]
  Hepatotoxicity: no drug-induced liver injury reported
Hepatotoxicity [2]
  Hepatotoxicity: no drug-induced liver injury reported
Hepatotoxicity [3]
  Hepatotoxicity: drug-induced liver injury reported

## CCCCC1(CC)C(=O)NC(=O)NC1=O [BUTETHAL]
Hepatotoxicity [1]
  Hepatotoxicity: drug-induced liver injury reported
Hepatotoxicity [2]
  Hepatotoxicity: no drug-induced liver injury reported
Hepatotoxicity [3]
  Hepatotoxicity: no drug-induced liver injury reported

## Cn1c(=O)c2c(ncn2C)n(C)c1=O [CAFFEINE]
Hepatotoxicity [1]
  Hepatotoxicity: drug-induced liver injury reported
Hepatotoxicity [2]
  Hepatotoxicity: no drug-induced liver injury reported
Hepatotoxicity [3]
  Hepatotoxicity: drug-induced liver injury reported
